For the test, the target named is T1, Dnmt3a (Mus musculus, UniProt O88508).
T1 construct: C-terminal catalytic domain (Dnmt3a-C)
Kind of test: Biotin-avidin DNA methylation kinetics assay with [methyl-3H]AdoMet, purified Dnmt3a-C. The class given is biochemical.

pIC50: −log10 of the molar value.

Usually pIC50 stands for the IC50 on a negative log10 scale, so that one unit is a factor of ten. Lower therefore signals a high IC50.

T1 sequence (O88508 608-908 limits assumed): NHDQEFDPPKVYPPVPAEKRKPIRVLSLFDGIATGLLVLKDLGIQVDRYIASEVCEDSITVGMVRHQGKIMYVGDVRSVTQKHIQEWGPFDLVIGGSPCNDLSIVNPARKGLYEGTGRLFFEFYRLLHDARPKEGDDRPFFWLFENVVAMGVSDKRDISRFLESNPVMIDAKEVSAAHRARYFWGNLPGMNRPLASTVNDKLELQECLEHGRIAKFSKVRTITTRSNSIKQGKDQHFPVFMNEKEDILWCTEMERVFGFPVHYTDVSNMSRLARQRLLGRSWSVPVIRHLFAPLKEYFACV

`COC(=O)[C@]1(OC(=O)/C=C/c2ccc(O)c(O)c2)C[C@H](OC(=O)/C=C/c2ccc(O)c(O)c2)[C@H]2O[C@@](C)(OC)[C@](C)(OC)O[C@@H]2C1` [N12, 1,3-dicaffeoyl-muco-quinic acid diacetal] showed a pIC50 of 4.46.

Source of the values: paper PMC3102611, “The inhibition of the mammalian DNA methyltransferase 3a (Dnmt3a) by dietary black tea and coffee polyphenols” (2011).
